Here are results for 3 molecules from ChEMBL document CHEMBL6153160, “Novel 3-Cycloaminoindole Compounds as Serotonergic Psychedelic Agents for Treating Psychosis, Mental Illness, and CNS Disorders” (ACS Med Chem Lett, 2025).

One may read the IC50 as the concentration that inhibits the measured activity by half. The low end stands for higher potency, the high end for lower potency.

The target of this assay is 5-hydroxytryptamine receptor 2A (Homo sapiens, UniProt P28223). As to the kind of experiment: Displacement of [3H]-ketanserin from human 5-HT2A receptor incubated for 90 mins by microbeta2 microplate counter assay. A general note: Loss of bound radioactivity is the signal in a displacement assay; it reports binding, not function.
Chain of 5-hydroxytryptamine receptor 2A (P28223 whole entry): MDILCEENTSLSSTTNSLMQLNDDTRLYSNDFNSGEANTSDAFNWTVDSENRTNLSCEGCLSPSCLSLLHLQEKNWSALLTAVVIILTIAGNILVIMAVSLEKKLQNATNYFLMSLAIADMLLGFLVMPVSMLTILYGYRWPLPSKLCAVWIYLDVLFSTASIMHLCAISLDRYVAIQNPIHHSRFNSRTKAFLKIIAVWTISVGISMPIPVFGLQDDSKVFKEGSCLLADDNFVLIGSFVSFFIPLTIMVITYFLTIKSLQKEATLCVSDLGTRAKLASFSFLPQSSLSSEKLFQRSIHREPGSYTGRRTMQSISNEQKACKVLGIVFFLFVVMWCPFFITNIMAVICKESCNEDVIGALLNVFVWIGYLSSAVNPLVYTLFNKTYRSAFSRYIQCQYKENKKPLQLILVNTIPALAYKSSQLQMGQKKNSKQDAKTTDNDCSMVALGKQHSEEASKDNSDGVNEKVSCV

Turning to `CN(C)CCc1c[nH]c2ccccc12`, the half-inhibitory concentration (IC50) was under 500 nM.

`[2H]c1[nH]c2c([2H])c([2H])c([2H])c([2H])c2c1C1CCN(C)C1` (stereo not drawn) registered an IC50 of under 500 nM. Then `[2H]c1[nH]c2c([2H])c([2H])c([2H])c([2H])c2c1C1CC([2H])([2H])N(C)C1([2H])[2H]` (stereo not drawn), with under 500 nM.
